Here are results for twelve compounds from paper PMC7531004, “Discovery of gramicidin A analogues with altered activities by multidimensional screening of a one-bead-one-compound library” (Nature Communications, 2020).

A short description of data set [1]: H+/Na+ transport assay of bead-derived peptides (one-point).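 Note: relative to parent gramicidin A activity set to 1.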 Also on record: key: relative activity; mean of two control wells = 1.00. Type of data set: biochemical. As to conditions: bead-derived peptide solution, EYPC/EYPG LUVs. The procedure, abridged: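 Values are normalized fluorescence, with Triton X-100 defining 100% and untreated LUVs 0%, and the two control wells averaging 1.00. Vesicles carried 1.0 mM pyranine and included egg yolk phosphatidylglycerol. Peptides were incubated with them 30 min at room temperature.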

In data set [2] the test system is P388 mouse leukemia cells. The note with it: 92 h. The procedure, abridged: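 Peptide stocks diluted 250× in growth medium; P388 cells 1 × 10^4 cells/mL final; 37 °C, 5% CO2, 92 h. WST-1 + 1-methoxy PMS, 4 h, A415. Output: % viability.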
For data set [3], the system named is Streptococcus pyogenes SSI-9. As to the kind of experiment: Antibacterial activity assay of bead-derived peptides (three concentrations). Type of data set: cell-based. Also on record: key: +++: inhibition by the 640-fold diluted peptide solution; ++: inhibition by the 160-fold diluted solution; +: inhibition by the 40-fold diluted solution; -: no inhibition. As to conditions: S. pyogenes, bead-derived peptide solution, three concentrations. The procedure, abridged: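 First, each peptide stock was diluted 4- and 16-fold in DMSO; next, the three solutions were mixed with S. pyogenes SSI-9 suspension (2 × 10^5 CFU) in cation-adjusted Mueller Hinton Broth plus 5% laked horse blood; finally, plates stood 18 h at 37 °C before checking for grown-cell precipitation.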

Where a SMILES comes first, the peptide text is derived from it. [ ]: non-standard residue; d: D form. The star is where a group is joined. NHCH2CH2OH = OCCN*; For = O=C*

For the compound `CNC(=O)C[C@@H](NC(=O)[C@@H](NC(=O)[C@@H](CC(C)C)NC(=O)[C@H](C)NC(=O)[C@H](NC(=O)[C@H](C)NC(=O)CNC(=O)[C@@H](NC=O)C(C)C)C(C)C)C(C)C)C(=O)N[C@@H](Cc1c[nH]c2ccccc12)C(=O)N[C@H](CC(C)C)C(=O)N[C@@H](Cc1c[nH]c2ccccc12)C(=O)N[C@H](CC(C)C)C(=O)N[C@@H](Cc1c[nH]c2ccccc12)C(=O)N[C@@H](C(=O)N[C@@H](Cc1c[nH]c2ccccc12)C(=O)NCCO)C(C)C` [compound 3800] (For-VGA[dV]A[dL]V[dD](NHMe)W[dL]W[dL]W[dV]W-NHCH2CH2OH), the “H+/Na+ transport activity normalized against the value of 1 (1.00)” value (shortened to “H+/Na+ transport activity normalized”) in data set [1] is listed as 1.23. Moreover, the cell viability/% in data set [2] came to 100.0%. Also, in data set [3], the antibacterial activity entry was “-”.
The corresponding values for `CC(C)C[C@@H](NC(=O)[C@H](C)NC(=O)CNC(=O)[C@@H](NC=O)C(C)C)C(=O)N[C@@H](C)C(=O)N[C@@H](C(=O)N[C@H](C(=O)N[C@H](CC(C)C)C(=O)N[C@@H](Cc1c[nH]c2ccccc12)C(=O)N[C@H](CC(C)C)C(=O)N[C@@H](Cc1c[nH]c2ccccc12)C(=O)N[C@@H](C(=O)N[C@@H](Cc1c[nH]c2ccccc12)C(=O)N[C@H](CC(C)C)C(=O)N[C@@H](Cc1c[nH]c2ccccc12)C(=O)NCCO)C(C)C)C(C)C)C(C)C` [compound 3847] (For-VGA[dL]A[dV]V[dL]W[dL]W[dV]W[dL]W-NHCH2CH2OH) are 1.22, 0.0% and “+”.
As for `CNC(=O)C[C@@H](NC(=O)[C@H](Cc1c[nH]c2ccccc12)NC(=O)[C@H](NC(=O)[C@H](Cc1c[nH]c2ccccc12)NC(=O)[C@@H](CC(C)C)NC(=O)[C@H](Cc1c[nH]c2ccccc12)NC(=O)[C@@H](CC(C)C)NC(=O)[C@@H](NC(=O)[C@@H](CC(C)C)NC(=O)[C@H](C)NC(=O)[C@@H](CC(C)C)NC(=O)[C@H](C)NC(=O)CNC(=O)[C@@H](NC=O)C(C)C)C(C)C)C(C)C)C(=O)N[C@@H](Cc1c[nH]c2ccccc12)C(=O)NCCO` [compound 3911] (For-VGA[dL]A[dL]V[dL]W[dL]W[dV]W[dD](NHMe)W-NHCH2CH2OH), in data set [1], the “H+/Na+ transport activity normalized” value was 1.00. The same compound had a cell viability/% in data set [2] of 100.0%. In addition, in data set [3], the antibacterial activity entry is “-”.
The corresponding values for `CNC(=O)C[C@@H](NC(=O)[C@@H](NC(=O)[C@@H](CC(C)C)NC(=O)[C@H](C)NC(=O)[C@@H](CC(C)C)NC(=O)[C@H](C)NC(=O)CNC(=O)[C@@H](NC=O)C(C)C)C(C)C)C(=O)N[C@@H](Cc1c[nH]c2ccccc12)C(=O)N[C@H](CC(C)C)C(=O)N[C@@H](Cc1c[nH]c2ccccc12)C(=O)N[C@H](CC(C)C)C(=O)N[C@@H](Cc1c[nH]c2ccccc12)C(=O)N[C@@H](C(=O)N[C@@H](Cc1c[nH]c2ccccc12)C(=O)NCCO)[C@H](C)O` [compound 3929] (For-VGA[dL]A[dL]V[dD](NHMe)W[dL]W[dL]W[dT]W-NHCH2CH2OH) are 1.14, 100.0% and “-”.
The corresponding values for `CC(C)C[C@@H](NC(=O)[C@H](C)NC(=O)CNC(=O)[C@@H](NC=O)C(C)C)C(=O)N[C@@H](C)C(=O)N[C@H](CC(C)C)C(=O)N[C@H](C(=O)N[C@@H](C(=O)N[C@@H](Cc1c[nH]c2ccccc12)C(=O)N[C@@H](C(=O)N[C@@H](Cc1c[nH]c2ccccc12)C(=O)N[C@@H](C(=O)N[C@@H](Cc1c[nH]c2ccccc12)C(=O)N[C@H](CC(C)C)C(=O)N[C@@H](Cc1c[nH]c2ccccc12)C(=O)NCCO)C(C)C)[C@H](C)O)C(C)C)C(C)C` [compound 4031] (For-VGA[dL]A[dL]V[dV]W[dT]W[dV]W[dL]W-NHCH2CH2OH) are 1.05, 92.4% and “-”.
The corresponding values for `CNC(=O)C[C@@H](NC(=O)[C@@H](NC(=O)[C@H](NC(=O)[C@H](C)NC(=O)[C@H](NC(=O)[C@H](C)NC(=O)CNC(=O)[C@@H](NC=O)C(C)C)C(C)C)C(C)C)C(C)C)C(=O)N[C@@H](Cc1c[nH]c2ccccc12)C(=O)N[C@@H](C(=O)N[C@@H](Cc1c[nH]c2ccccc12)C(=O)N[C@H](CC(C)C)C(=O)N[C@@H](Cc1c[nH]c2ccccc12)C(=O)N[C@H](CC(C)C)C(=O)N[C@@H](Cc1c[nH]c2ccccc12)C(=O)NCCO)C(C)C` [compound 4049] (For-VGA[dV]A[dV]V[dD](NHMe)W[dV]W[dL]W[dL]W-NHCH2CH2OH) are 1.15, 100.0% and “-”.
For the compound `CC(C)C[C@@H](NC(=O)[C@H](C)NC(=O)[C@H](NC(=O)[C@H](C)NC(=O)CNC(=O)[C@@H](NC=O)C(C)C)C(C)C)C(=O)N[C@H](C(=O)N[C@@H](C(=O)N[C@@H](Cc1c[nH]c2ccccc12)C(=O)N[C@H](CC(C)C)C(=O)N[C@@H](Cc1c[nH]c2ccccc12)C(=O)N[C@@H](C(=O)N[C@@H](Cc1c[nH]c2ccccc12)C(=O)N[C@@H](C(=O)N[C@@H](Cc1c[nH]c2ccccc12)C(=O)NCCO)C(C)C)C(C)C)[C@H](C)O)C(C)C` [compound 4126] (For-VGA[dV]A[dL]V[dT]W[dL]W[dV]W[dV]W-NHCH2CH2OH), the “H+/Na+ transport activity normalized” value in data set [1] was found to be 1.06. For the same compound, the cell viability/% in data set [2] is on record as 100.0%. Besides, in data set [3], the antibacterial activity result was “-”.
For the compound `CC(C)C[C@@H](NC(=O)[C@H](C)NC(=O)CNC(=O)[C@@H](NC=O)C(C)C)C(=O)N[C@@H](C)C(=O)N[C@@H](C(=O)N[C@H](C(=O)N[C@H](CC(C)C)C(=O)N[C@@H](Cc1c[nH]c2ccccc12)C(=O)N[C@H](CC(C)C)C(=O)N[C@@H](Cc1c[nH]c2ccccc12)C(=O)N[C@@H](C(=O)N[C@@H](Cc1c[nH]c2ccccc12)C(=O)N[C@H](CC(C)C)C(=O)N[C@@H](Cc1c[nH]c2ccccc12)C(=O)NCCO)[C@H](C)O)C(C)C)C(C)C` [compound 4128] (For-VGA[dL]A[dV]V[dL]W[dL]W[dT]W[dL]W-NHCH2CH2OH), in data set [1], the “H+/Na+ transport activity normalized” value is 1.03. Further, the cell viability/% in data set [2] is listed as 100.0%. In addition, the antibacterial activity entry in data set [3] is reported as “+”.
The corresponding values for `CC(C)C[C@@H](NC(=O)[C@H](Cc1c[nH]c2ccccc12)NC(=O)[C@H](NC(=O)[C@H](Cc1c[nH]c2ccccc12)NC(=O)[C@@H](CC(C)C)NC(=O)[C@@H](NC(=O)[C@H](NC(=O)[C@H](C)NC(=O)[C@H](NC(=O)[C@H](C)NC(=O)CNC(=O)[C@@H](NC=O)C(C)C)[C@H](C)O)C(C)C)C(C)C)C(C)C)C(=O)N[C@@H](Cc1c[nH]c2ccccc12)C(=O)N[C@@H](C(=O)N[C@@H](Cc1c[nH]c2ccccc12)C(=O)NCCO)C(C)C` [compound 4187] (For-VGA[dT]A[dV]V[dL]W[dV]W[dL]W[dV]W-NHCH2CH2OH) are 1.32, 95.1% and “-”.
The corresponding values for `CC(C)C[C@@H](NC(=O)[C@H](C)NC(=O)[C@H](NC(=O)[C@H](C)NC(=O)CNC(=O)[C@@H](NC=O)C(C)C)C(C)C)C(=O)N[C@H](C(=O)N[C@H](CC(C)C)C(=O)N[C@@H](Cc1c[nH]c2ccccc12)C(=O)N[C@H](CC(C)C)C(=O)N[C@@H](Cc1c[nH]c2ccccc12)C(=O)N[C@@H](C(=O)N[C@@H](Cc1c[nH]c2ccccc12)C(=O)N[C@H](CC(C)C)C(=O)N[C@@H](Cc1c[nH]c2ccccc12)C(=O)NCCO)[C@H](C)O)C(C)C` [compound 4209] (For-VGA[dV]A[dL]V[dL]W[dL]W[dT]W[dL]W-NHCH2CH2OH) are 1.33, 96.2% and “-”.
The corresponding values for `CC(C)C[C@@H](NC(=O)[C@H](C)NC(=O)[C@H](NC(=O)[C@H](C)NC(=O)CNC(=O)[C@@H](NC=O)C(C)C)C(C)C)C(=O)N[C@H](C(=O)N[C@H](CC(C)C)C(=O)N[C@@H](Cc1c[nH]c2ccccc12)C(=O)N[C@@H](C(=O)N[C@@H](Cc1c[nH]c2ccccc12)C(=O)N[C@H](CC(C)C)C(=O)N[C@@H](Cc1c[nH]c2ccccc12)C(=O)N[C@@H](C(=O)N[C@@H](Cc1c[nH]c2ccccc12)C(=O)NCCO)C(C)C)[C@H](C)O)C(C)C` [compound 4232] (For-VGA[dV]A[dL]V[dL]W[dT]W[dL]W[dV]W-NHCH2CH2OH) are 1.05, 93.0% and “-”.
Consider `CC(C)C[C@@H](NC(=O)[C@H](Cc1c[nH]c2ccccc12)NC(=O)[C@@H](CC(C)C)NC(=O)[C@@H](NC(=O)[C@H](NC(=O)[C@H](C)NC(=O)[C@H](NC(=O)[C@H](C)NC(=O)CNC(=O)[C@@H](NC=O)C(C)C)[C@H](C)O)C(C)C)C(C)C)C(=O)N[C@@H](Cc1c[nH]c2ccccc12)C(=O)N[C@H](CC(C)C)C(=O)N[C@@H](Cc1c[nH]c2ccccc12)C(=O)N[C@@H](C(=O)N[C@@H](Cc1c[nH]c2ccccc12)C(=O)NCCO)C(C)C` [compound 4236] (For-VGA[dT]A[dV]V[dL]W[dL]W[dL]W[dV]W-NHCH2CH2OH), for which the “H+/Na+ transport activity normalized” value in data set [1] came out at 1.43. This compound also showed a cell viability/% in data set [2] of 93.0%. Moreover, the antibacterial activity result in data set [3] is reported as “-”.
